{"source": "patent US6747023B1", "about": "(Daiichi Pharmaceutical Co., Ltd., priority 1998, dated 2004)", "key": {"[1]": {"molecular_target": "human Factor Xa (Homo sapiens, UniProt P00742)", "sequence (P00742 235-488 limits assumed)": "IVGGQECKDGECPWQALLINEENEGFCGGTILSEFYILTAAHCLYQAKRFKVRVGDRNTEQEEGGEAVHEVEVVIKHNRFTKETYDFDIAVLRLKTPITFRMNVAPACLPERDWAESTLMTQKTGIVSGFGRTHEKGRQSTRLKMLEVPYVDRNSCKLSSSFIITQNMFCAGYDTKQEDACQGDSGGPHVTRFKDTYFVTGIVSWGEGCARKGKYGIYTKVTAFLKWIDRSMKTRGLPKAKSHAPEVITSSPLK", "sequence (P00742 41-179 partner limits assumed)": "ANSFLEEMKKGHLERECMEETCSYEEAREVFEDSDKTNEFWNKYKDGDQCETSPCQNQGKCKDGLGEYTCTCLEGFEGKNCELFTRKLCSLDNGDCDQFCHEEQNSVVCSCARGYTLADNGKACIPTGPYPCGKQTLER", "assay": "Test of oral administration: anti-FXa activity in the plasma", "type": "in vivo, Wistar male rat", "details": "rat, one hour after the oral administration of 30 mg/kg", "experimental": "(§1) A sample was dissolved or suspended in a 0.5% (w/v) methyl cellulose solution and the resulting solution or suspension was orally administered (10 ml/kg) to a 8 to 11 week-old rat (Wistar male rat (Nippon SLC Co., Ltd.)) which had been fasted overnight. After administration of the sample, the blood to which 1/10 part by weight of 3.13% (w/v) sodium citrate had been added was collected from the cervical vein under anesthesia with halothane. The rat was awakened except during the blood collection. Feeding was re-started 6 hours after the blood collection. From each blood sample, the plasma was separated by centrifugal separation and anti-FXa activity in the blood and prothrombin time extending action were measured.\nIn a 96-well plate, 5 μl of the plasma was poured in portions, followed by the addition of 55 μl of a 8:1:2 mixture of 100 mM tris.200 mM sodium chloride.0.2% BSA (pH 7.4) buffer, water and 0.1 U/ml human Factor Xa solution (dissolved in and diluted with a measuring buffer) and 40 μl of 750 μM S-2222. After stirring for 10 seconds in a plate mixer, an increase (mOD/min) of the absorbance at 405 nm was measured at room temperature. The inhibitory ratio was calculated as follows:\nAn inhibitory ratio (%)=(1−OD of sample÷OD of control on average relative to blood-collecting time of sample)×100"}, "[2]": {"test_system": "prothrombin time of the plasma", "assay": "Test of oral administration: coagulation extending action (prothrombin time)", "type": "in vivo, Wistar male rat", "details": "rat, oral administration of 30 mg/kg", "experimental": "as §1\nTo 20 μl of the plasma, 40 μl of cynplastin (Organon Teknika/USA) was added and the coagulation time was measured. The ratio of the prothrombin time after the administration of the sample relative to the prothrombin time before the administration of the sample was designated as an index of the coagulation extending action."}, "[3]": {"test_system": "tissue thromboplastin-derived DIC", "assay": "Anti-thrombus effects in a tissue thromboplastin-derived rat DIC model", "type": "in vivo", "details": "oral 30 mg/kg, tissue thromboplastin one hour after the sample", "experimental": "A rat was anesthetized with halothane. After the collection of the blood (for measurement of the number of platelets, anti-FXa activity and TAT) from its cervical vein by using 1/10 part by weight of 3.13% (w/v) sodium citrate, the sample was administered orally. At an appropriate time after the administration, the rat was intraperitoneally anesthetized ([…]) with Nembutal (50 mg/ml pentobarbital sodium, Abott Laboratories), followed by intravenous drip of 0.2 U/ml of tissue thromboplastin (Thromboplastin C plus, Dade Diagnostics of P. R. Inc.,) from the femoral vein for one minute at a rate of 2.5 to 3.0 ml/kg/min. The blood was collected (for measuring the number of platelets and anti-FXa activity) from the cervical vein 10 minutes after the intravenous drip and the blood was collected (for measuring TAT) from the cervical vein 20 minutes after the blood collection. The number of platelets, anti-FXa activity in the plasma and TAT concentration of each blood sample were measured. The number of the platelets was measured by an automatic cytometer, while the anti-FXa activity in the plasma was measured in a similar manner to that described in Test 4.\nFor the measurement of TAT (Thrombin-anti Thrombin=complex), EnzygnostR TAT micro kit (Boering Verke) was employed."}}}
{"compound": "CC1Cc2nc(C(=O)N3CCN(S(=O)(=O)c4ccc5cc(Cl)ccc5c4)CC3C(N)=O)sc2CN1.Cl", "note": "(centres unmarked) [Example B-36, 2-Carbamoyl-4-[(6-chloronaphthalen-2-yl)sulfonyl]-1-[(6-methyl-4,5,6,7-tetrahydrothiazolo[5,4-c]pyridin-2-yl)carbonyl]piperazine hydrochloride]", "values": [{"measurement": "anti-FXa activity in the plasma", "setting": "[1]", "value": 68, "unit": "%"}, {"measurement": "thrombin time (result in words)", "setting": "[2]", "value": "extended the thrombin time"}, {"measurement": "anti-FXa action in the plasma (result in words)", "setting": "[3]", "value": "apparent anti-FXa action in the plasma was recognized"}, {"measurement": "decrease in the number of the platelets", "setting": "[3]", "value": "suppressed"}, {"measurement": "increase in the TAT concentration", "setting": "[3]", "value": "suppressed"}]}
